In PMC7816042, “Insights into the Structure-Activity Relationship of Glycosides as Positive Allosteric Modulators Acting on P2X7 Receptors” (Molecular Pharmacology, 2021):

Key:
HEK-hP2X7 cells = test: Cell viability assay (resazurin/Alamar blue) in HEK-hP2X7 cells; format: cell-based, human; conditions: 24 hours
Method: HEK-hP2X7 or THP-1 cells were seeded at 5 × 10^3 cells per well in a volume of 100 μl for 24 hours in 96-well plates (Nunclon Edge plates, catalog number 167425; Thermo Scientific). Cells were plated in DMEM:F12 medium or RPMI 1640 medium containing 1% FBS and penicillin/streptomycin for 24 hours in a humidified incubator at 37°C with a constant supply of 5% CO2. Edge wells of the plates were filled with autoclaved distilled water to prevent evaporation of media from wells containing cells. The compounds and ATP were made at 2× final concentration in 1% FBS DMEM:F12 and 100 μl added to the cells for 24 hours. After incubation, resazurin sodium salt (CAS 62758-13-8; Sigma Aldrich) at 0.1 mg/ml in sterile PBS was added to the plate (20 into 200 µl culture medium per well). Cells were incubated for a further 2 hours in a humidified incubator at 37°C with a supply of 5% CO2. A Flexstation 3 microplate reader was used to acquire data. Endpoint fluorescence data were measured using 570 nm excitation wavelength, 600 nm emission wavelength (cutoff at 590 nm), and three reads per well (PMT low). Data were analyzed by performing background correction through subtracting blank medium readings (without cells) from all samples and then normalizing each sample to medium treated cells (control treatment, 100%) as percentage of control.
(§1) Results are expressed as means ± S.D. from the indicated number of experiments. For YO-PRO-1 dye uptake and intracellular calcium experiments, each independent experiment used triplicate wells, and the means of the replicates were collated and plotted. Technical replicates were used to ensure reliability of fluorescence values. Cell viability data were normalized to the vehicle control for each experiment after background correction had been performed. Dose-response curves were plotted by a nonlinear regression fit with variable slope using GraphPad Prism software version 7. Half-maximal responses are expressed as EC50 values with 95% confidence intervals. These values were calculated from the collated data for each compound from three independent experiments. Statistical differences were determined by analysis of the data by one-way ANOVA followed by Dunnett’s multiple comparison test or Sidak’s multiple comparison test using GraphPad Prism version 7. P < 0.05 was the accepted minimum level of significance.

human P2X7 = biological target: T1, human P2X7 (Homo sapiens, UniProt Q99572); test: YO-PRO-1 dye uptake assay in HEK-hP2X7 cells; format: cell-based; conditions: 10 µM glycoside; for PAM effect on ATP dose-response curve: HEK-hP2X7, result in words; for EC50 ratio: average EC50 for ATP + vehicle of each set of experiments used; for Maximum response (fold increase): maximum response defined at 1 mM ATP
T1 construct: expressed in transfected cells
T1 sequence (Q99572 1-595): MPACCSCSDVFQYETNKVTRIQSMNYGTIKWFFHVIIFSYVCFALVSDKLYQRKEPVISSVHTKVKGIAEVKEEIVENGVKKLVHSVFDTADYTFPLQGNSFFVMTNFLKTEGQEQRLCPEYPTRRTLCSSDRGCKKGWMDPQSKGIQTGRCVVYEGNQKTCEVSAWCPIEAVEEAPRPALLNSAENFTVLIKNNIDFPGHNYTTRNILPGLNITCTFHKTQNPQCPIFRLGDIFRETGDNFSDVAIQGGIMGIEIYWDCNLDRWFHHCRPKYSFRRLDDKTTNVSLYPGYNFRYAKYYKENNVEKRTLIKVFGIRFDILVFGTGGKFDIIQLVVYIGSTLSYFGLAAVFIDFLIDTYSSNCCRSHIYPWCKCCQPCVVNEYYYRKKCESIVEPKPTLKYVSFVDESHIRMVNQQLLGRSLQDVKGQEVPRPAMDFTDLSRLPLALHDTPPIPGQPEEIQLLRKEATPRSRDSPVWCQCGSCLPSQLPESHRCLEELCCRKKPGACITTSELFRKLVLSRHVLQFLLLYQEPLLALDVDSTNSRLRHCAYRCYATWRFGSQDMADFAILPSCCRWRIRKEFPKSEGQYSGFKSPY
Method: ATP-induced dye uptake experiments were performed as described previously ([Bidula et al., 2019b]). Briefly, HEK-hP2X7 cells were plated at 2 × 10^4 cells per well (100 μl per well) in complete medium and left overnight to attach to poly-D-lysine–coated 96-well plates. YO-PRO-1 iodide was prepared in a low divalent buffered solution ([…], 2 mM KCl, 13 mM D-glucose, 10 mM HEPES, 0.2 mM CaCl2 pH 7.3) to a final concentration of 2 μM. Medium was removed from the plate using a manual multichannel pipette and YO-PRO-1 containing buffer applied to wells (180 μl per well). […] A Flexstation 3 plate reader (Molecular Devices, Sunnyvale, CA) was used to record YO-PRO-1 fluorescence in HEK-hP2X7 for 300 seconds after the addition of ATP (at 10× final concentration) with/without ginsenoside compounds or vehicle (DMSO). Plates were allowed to warm up to 37°C for 10 minutes before initiating the recording. Baseline recordings were made for 40 seconds before compound addition using the Flexstation 3 fluidics system. YO-PRO-1 fluorescence was measured at 520 nm after excitation at 490 nm (auto cutoff at 495 nm), and the sample interval was 3.5 seconds. Flexstation settings were photomultiplier tube (PMT) medium, six reads per well, pipette height 170, and a rate of injection of 3. Data were acquired using Softmax Pro version 5.4 (Molecular Devices). To analyze the data, area under the dye uptake curve was calculated in Softmax Pro version 5 using zero baseline data with a lag time of 50 seconds (50–300 seconds).
as §1, with “Cell viability data were normalized to the vehicle control for each experiment after background correction had been performed.” left out

[1] = biological target: T2, endogenous P2X7 in THP-1 cells (Homo sapiens, UniProt Q99572); test: Fura-2 calcium measurements in THP-1 monocytes; format: cell-based; conditions: for Effect on ATP-induced calcium response: 500 µM ATP co-applied with 10 µM glycoside
T2 sequence (Q99572 1-394 limits assumed): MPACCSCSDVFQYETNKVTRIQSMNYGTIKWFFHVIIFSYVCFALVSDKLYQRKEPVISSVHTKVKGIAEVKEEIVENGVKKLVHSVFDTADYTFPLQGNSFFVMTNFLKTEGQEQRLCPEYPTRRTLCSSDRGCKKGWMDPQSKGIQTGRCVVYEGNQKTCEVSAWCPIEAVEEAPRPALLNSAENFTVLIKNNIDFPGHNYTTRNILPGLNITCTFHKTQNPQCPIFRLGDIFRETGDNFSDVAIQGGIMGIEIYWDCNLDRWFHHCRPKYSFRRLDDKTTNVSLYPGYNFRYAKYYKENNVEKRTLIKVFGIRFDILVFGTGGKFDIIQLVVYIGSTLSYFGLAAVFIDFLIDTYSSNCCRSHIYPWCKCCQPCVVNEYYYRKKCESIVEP
Method: THP-1 cells were pelleted by centrifugation (300g, 5 minute), washed, and resuspended in Hanks’ balanced salt solution buffer containing 2 μM fura-2 AM (HelloBio) and 250 μM (±)-sulfinpyrazone. Cells were loaded for 1 hour in a waterbath at 37°C while shielded from light with foil. Loaded cells were washed once with 5 ml Hanks’ balanced salt solution to remove excess fura-2 AM dye. THP-1 cells were then resuspended, counted, and plated at 2 × 10^5 cells per well in a standard clear 96-well plate (NUNC 167008; Thermo Scientific) in low divalent assay buffer without Mg^2+ (145 mM NaCl, 2 mM KCl and 2 mM CaCl2, 13 mM glucose, 10 mM HEPES, pH 7.3) containing 250 μM (±)-sulfinpyrazone. The 10× concentration of agonist (ATP) was prepared in the same assay buffer. ATP was injected automatically into wells at 30 seconds in a Flexstation 3 microplate reader. Ratiometric data were acquired using 340 and 380 nm for excitation wavelengths, 520 nm as the emission wavelength, and six reads per well (PMT medium). Area under the curve was calculated using standard zero baseline normalization with a lag time 0–300 seconds using SoftMax Pro version 5.4 software.
as §1, with “Cell viability data were normalized to the vehicle control for each experiment after background correction had been performed.” left out

Structure (SMILES)	Cell viability in combination with ATP (HEK-hP2X7 cells)	PAM effect on ATP dose-response curve (human P2X7)	EC50 ratio (human P2X7)	Maximum response (fold increase) (human P2X7) [fold]	Effect on ATP-induced calcium response [1]	Maximum response (fold increase) (human P2X7; listed as gypenoside XVII) [fold]	Antagonist effect on ginsenoside-CK potentiated calcium response ([1]; 10 µM antagonist pretreatment, 500 µM ATP + ginsenoside-CK)	Antagonist effect on calcium response to ATP alone ([1]; 500 µM ATP, antagonist pretreatment)
CC(C)=CCC[C@@](C)(O)[C@H]1CC[C@]2(C)[C@@H]1[C@H](O)C[C@@H]1[C@@]3(C)CC[C@H](O[C@@H]4O[C@H](CO)[C@@H](O)[C@H](O)[C@H]4O[C@@H]4O[C@H](CO)[C@@H](O)[C@H](O)[C@H]4O)C(C)(C)[C@@H]3CC[C@]12C [Ginsenoside-20(R)-Rg3, 20(R)-ginsenoside-Rg3]	neither gypenoside XVII nor 20(R)-Rg3 in combination with ATP affected cell viability	inactive	1.0	0.94	–	–	–	–
CC(C)=CCC[C@](C)(O[C@@H]1O[C@H](CO)[C@@H](O)[C@H](O)[C@H]1O)[C@H]1CC[C@]2(C)[C@@H]1[C@H](O)C[C@@H]1[C@@]3(C)CC[C@H](O[C@@H]4O[C@H](CO)[C@@H](O)[C@H](O)[C@H]4O[C@@H]4O[C@H](CO)[C@@H](O)[C@H](O)[C@H]4O)C(C)(C)[C@@H]3CC[C@]12C [Ginsenoside-Rd, ginsenoside-Rd]	very effective at enhancing cell death	mixed type I/II effects	3.8	2.77	potentiated	–	–	–
CC(C)=CCC[C@](C)(O[C@@H]1O[C@H](CO)[C@@H](O)[C@H](O)[C@H]1O)[C@H]1CC[C@]2(C)[C@@H]1[C@H](O)C[C@@H]1[C@@]3(C)CC[C@H](O[C@@H]4O[C@H](CO)[C@@H](O)[C@H](O)[C@H]4O)C(C)(C)[C@@H]3CC[C@]12C [Ginsenoside-F2, ginsenoside-F2]	could reduce cell viability	mixed type I/II effect	5.4	2.23	potentiated	–	–	–
CC(C)=CCC[C@](C)(O[C@@H]1O[C@H](CO[C@@H]2O[C@H](CO)[C@@H](O)[C@H](O)[C@H]2O)[C@@H](O)[C@H](O)[C@H]1O)[C@H]1CC[C@]2(C)[C@@H]1[C@H](O)C[C@@H]1[C@@]3(C)CC[C@H](O[C@@H]4O[C@H](CO)[C@@H](O)[C@H](O)[C@H]4O)C(C)(C)[C@@H]3CC[C@]12C [Gypenoside XVII, gypenoside XVII]	neither gypenoside XVII nor 20(R)-Rg3 in combination with ATP affected cell viability	–	2.4	2.0	–	2	–	–
O=C1CSC(=O)N1C(CCc1ccncc1)COc1ccc(-c2cccc([N+](=O)[O-])c2)cc1 (centres unmarked) [AZ11645373, reference compound]	–	–	–	–	–	–	completely abolished	did not dramatically affect
CC(C)=CCC[C@](C)(O)[C@H]1CC[C@]2(C)[C@@H]1[C@H](O)C[C@@H]1[C@@]3(C)CC[C@H](O[C@@H]4O[C@H](CO)[C@@H](O)[C@H](O)[C@H]4O[C@@H]4O[C@H](CO)[C@@H](O)[C@H](O)[C@H]4O)C(C)(C)[C@@H]3CC[C@]12C [Ginsenoside-20(S)-Rg3, 20(S)-ginsenoside-Rg3]	could reduce cell viability	positive modulator activity with a reduced EC50 for ATP and increased maximal response	1.8	2.4	potentiated	–	–	–
CC(C)=CCC[C@](C)(O[C@@H]1O[C@H](CO)[C@@H](O)[C@H](O)[C@H]1O)[C@H]1CC[C@]2(C)[C@@H]1[C@H](O)C[C@@H]1[C@@]3(C)CC[C@H](O)C(C)(C)[C@@H]3[C@@H](O)C[C@]12C [Ginsenoside-F1, ginsenoside-F1]	–	did not potentiate P2X7 responses	1.1	1.46	inactive	–	–	–
